Measured values taken from paper PMC4425367 (Journal of medicinal chemistry, 2015).
Entries after “also recorded” stand apart in the source; their conditions may differ.

Assays:
hCB2 receptor = hCB2 receptor (Homo sapiens, UniProt P34972); test: cAMP assay, forskolin-stimulated cAMP in HEK293 cells expressing hCB2; type: cell-based; conditions: for classification hCB2: cAMP functional test
rCB1 receptor = rCB1 receptor (Rattus norvegicus, UniProt P20272); test: cAMP assay, forskolin-stimulated cAMP in HEK293 cells expressing rCB1; type: cell-based; conditions: cAMP functional test
Chain of rCB1 receptor (P20272 whole entry): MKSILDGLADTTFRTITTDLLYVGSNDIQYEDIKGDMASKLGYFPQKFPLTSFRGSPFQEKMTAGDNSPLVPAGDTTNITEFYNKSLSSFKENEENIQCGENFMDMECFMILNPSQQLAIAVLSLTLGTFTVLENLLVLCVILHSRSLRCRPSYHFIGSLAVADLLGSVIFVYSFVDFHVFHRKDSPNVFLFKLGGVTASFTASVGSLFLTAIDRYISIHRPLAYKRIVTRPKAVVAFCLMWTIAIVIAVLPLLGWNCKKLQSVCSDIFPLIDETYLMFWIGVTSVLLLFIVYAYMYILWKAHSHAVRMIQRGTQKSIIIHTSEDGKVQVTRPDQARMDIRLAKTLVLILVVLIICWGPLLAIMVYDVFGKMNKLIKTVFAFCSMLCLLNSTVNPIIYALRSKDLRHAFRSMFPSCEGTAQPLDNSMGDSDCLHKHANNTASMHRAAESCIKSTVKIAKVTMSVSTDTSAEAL

CB1 receptor = CB1 receptor (Rattus norvegicus, UniProt P20272); type: binding; conditions: 10Ki concentration, incubation extended to 60 min, compared with 30 min
Chain of CB1 receptor (P20272 whole entry): as above

Chain of hCB2 receptor (P34972 whole entry): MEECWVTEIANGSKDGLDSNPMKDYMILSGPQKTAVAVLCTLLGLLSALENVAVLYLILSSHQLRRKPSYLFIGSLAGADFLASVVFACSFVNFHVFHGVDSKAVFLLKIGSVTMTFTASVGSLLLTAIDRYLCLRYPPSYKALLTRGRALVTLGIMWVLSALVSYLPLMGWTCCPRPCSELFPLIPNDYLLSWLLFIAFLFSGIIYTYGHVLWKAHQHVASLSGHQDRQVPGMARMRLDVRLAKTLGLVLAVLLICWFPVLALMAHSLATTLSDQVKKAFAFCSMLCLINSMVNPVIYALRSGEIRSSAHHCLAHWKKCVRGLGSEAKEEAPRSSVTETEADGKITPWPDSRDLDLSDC

SMILES	classification hCB2 (hCB2 receptor)	classification rCB1 (rCB1 receptor)	response of forskolin-stimulated cAMP accumulation, hCB2 (hCB2 receptor; HEK293 cells expressing hCB2, up to a 3 μM concentration)	CB1 covalent binding, 60 min incubation (CB1 receptor)
CCCCCCC(C)(C)c1ccc([C@@H]2C[C@H](O)CC[C@H]2CCCO)c(O)c1 [CP-55,940, reference compound]	full agonist; also recorded: potent agonist			
CC1(C)Oc2cc([C@]34CC5CC(C[C@@](CN=C=S)(C5)C3)C4)cc(O)c2[C@@H]2C[C@H](O)CC[C@H]21 [Compound 16, (6aR,9R,10aR)-3-[(1r,3R)-3-(Isothiocyanatomethyl)-adamantan-1-yl]-6,6-dimethyl-6a,7,8,9,10,10a-hexahydro-6H-benzo[c]chromene-1,9-diol]	inverse agonist	potent agonists; also recorded: agonist		
CC1(C)Oc2cc([C@]34CC5CC(C[C@@](CN=[N+]=[N-])(C5)C3)C4)cc(O)c2[C@@H]2C[C@H](O)CC[C@H]21 [Compound 17, (6aR,9R,10aR)-3-[(1r,3R)-3-(Azidomethyl)adamantan-1-yl]-6,6-dimethyl-6a,7,8,9,10,10a-hexahydro-6H-benzo[c]-chromene-1,9-diol]	neutral antagonists	agonist	no response	
CC1(C)Oc2cc([C@]34CC5CC(C[C@@](N=C=S)(C5)C3)C4)cc(O)c2[C@@H]2C[C@H](O)CC[C@H]21 [Compound 19, (6aR,9R,10aR)-3-[(1r,3R)-3-Isothiocyanatoadamantan-1-yl]-6,6-dimethyl-6a,7,8,9,10,10a-hexahydro-6H-benzo[c]-chromene-1,9-diol]	neutral antagonists	potent agonists; also recorded: agonist		no further increase
CC1(C)Oc2cc([C@]34CC5CC(C[C@@](N=[N+]=[N-])(C5)C3)C4)cc(O)c2[C@@H]2C[C@H](O)CC[C@H]21 [Compound 20, (6aR,9R,10aR)-3-[(1r,3R)-3-Azidoadamantan-1-yl]-6,6-di-methyl-6a,7,8,9,10,10a-hexahydro-6H-benzo[c]chromene-1,9-diol]	neutral antagonists	potent agonists; also recorded: agonist		
CC1(C)Oc2cc([C@]34CC5CC(C[C@@](CC#N)(C5)C3)C4)cc(O)c2[C@@H]2C[C@H](O)CC[C@H]21 [Compound 23, 2-{(1R,3r)-3-[(6aR,9R,10aR)-1,9-Dihydroxy-6,6-dimethyl-6a,7,8,9,10,10a-hexahydro-6H-benzo[c]chromen-3-yl]-adamantan-1-yl}acetonitrile]	inverse agonist	potent agonists; also recorded: agonist		
CC1(C)Oc2cc([C@]34CC5CC(C[C@@](C#N)(C5)C3)C4)cc(O)c2[C@@H]2C[C@H](O)CC[C@H]21 [Compound 25, (1R,3r)-3-[(6aR,9R,10aR)-1,9-Dihydroxy-6,6-dimethyl-6a,7,8,9,10,10a-hexahydro-6H-benzo[c]chromen-3-yl]-adamantane-1-carbonitrile]	inverse agonist	agonist		
COC(=O)N[C@]12CC3CC(C1)C[C@](c1cc(O)c4c(c1)OC(C)(C)[C@@H]1CC[C@@H](O)C[C@@H]41)(C3)C2 [Compound 26, Methyl {(1R,3r)-3-[(6aR,9R,10aR)-1,9-Dihydroxy-6,6-dimethyl-6a,7,8,9,10,10a-hexahydro-6H-benzo[c]chromen-3-yl]-adamantan-1-yl}carbamate]	inverse agonist	agonist		
CC1(C)Oc2cc(C34CC5CC(CC(C5)C3)C4)cc(O)c2[C@@H]2C[C@H](O)CC[C@H]21 [Compound 27, reference compound]		agonist		
